Laboratory results from ChEMBL document CHEMBL1955780, “In silico scaffold evaluation and solid phase approach to identify new gelatinase inhibitors” (Bioorg Med Chem, 2012).

Assays:
[1] = biological target: 72 kDa type IV collagenase (Homo sapiens, UniProt P08253); experiment: Inhibition of full length MMP2 using Mca-Pro-Leu-Gly-Leu-Dpa-Ala-Arg-NH2 as substrate preincubated for 1 hr prior substrate addition measured after 3 hrs by spectrofluorimetry
[2] = biological target: Matrix metalloproteinase-9 (Homo sapiens, UniProt P14780); experiment: Inhibition of MMP9 catalytic domain using Mca-Pro-Leu-Gly-Leu-Dpa-Ala-Arg-NH2 as substrate preincubated for 1 hr prior substrate addition measured after 3 hrs by spectrofluorimetry
Chain of Matrix metalloproteinase-9 (P14780 whole entry, the tested form may be a part): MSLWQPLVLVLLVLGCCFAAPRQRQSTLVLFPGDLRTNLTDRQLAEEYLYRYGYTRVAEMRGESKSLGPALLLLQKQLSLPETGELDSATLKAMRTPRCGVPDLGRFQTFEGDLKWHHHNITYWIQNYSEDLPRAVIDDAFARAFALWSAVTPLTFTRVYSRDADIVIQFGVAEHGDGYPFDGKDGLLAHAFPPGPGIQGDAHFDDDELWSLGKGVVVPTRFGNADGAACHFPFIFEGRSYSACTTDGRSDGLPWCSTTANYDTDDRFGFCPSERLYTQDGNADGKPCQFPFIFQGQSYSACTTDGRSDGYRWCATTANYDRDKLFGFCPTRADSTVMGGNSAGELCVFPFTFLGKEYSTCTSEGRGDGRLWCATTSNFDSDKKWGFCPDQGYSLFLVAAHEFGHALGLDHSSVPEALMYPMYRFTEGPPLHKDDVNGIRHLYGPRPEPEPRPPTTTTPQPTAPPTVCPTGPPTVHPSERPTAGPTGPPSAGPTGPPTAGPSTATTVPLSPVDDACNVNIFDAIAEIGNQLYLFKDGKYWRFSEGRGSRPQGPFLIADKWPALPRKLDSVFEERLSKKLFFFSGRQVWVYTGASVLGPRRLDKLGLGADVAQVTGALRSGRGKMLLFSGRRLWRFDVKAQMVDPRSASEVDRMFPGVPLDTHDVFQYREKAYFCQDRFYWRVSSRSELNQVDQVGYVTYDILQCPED

Interstitial collagenase = biological target: T1, Interstitial collagenase (Homo sapiens, UniProt P03956); experiment: Inhibition of MMP1 catalytic domain using Mca-Pro-Leu-Gly-Leu-Dpa-Ala-Arg-NH2 as substrate preincubated for 1 hr prior substrate addition measured after 3 hrs by spectrofluorimetry
T1 sequence (P03956 whole entry): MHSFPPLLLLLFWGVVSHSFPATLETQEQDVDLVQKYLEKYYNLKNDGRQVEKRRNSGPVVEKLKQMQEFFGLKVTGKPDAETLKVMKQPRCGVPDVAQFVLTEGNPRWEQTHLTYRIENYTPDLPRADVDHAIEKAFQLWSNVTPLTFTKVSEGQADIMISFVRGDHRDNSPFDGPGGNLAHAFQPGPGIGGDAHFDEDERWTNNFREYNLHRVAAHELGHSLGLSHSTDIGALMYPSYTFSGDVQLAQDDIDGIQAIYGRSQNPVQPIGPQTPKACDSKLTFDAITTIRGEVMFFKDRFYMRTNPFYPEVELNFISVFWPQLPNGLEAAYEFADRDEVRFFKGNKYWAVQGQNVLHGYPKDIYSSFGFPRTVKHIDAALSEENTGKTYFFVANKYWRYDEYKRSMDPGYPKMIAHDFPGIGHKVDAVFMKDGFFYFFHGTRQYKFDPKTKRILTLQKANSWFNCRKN

Stromelysin-1 = Stromelysin-1 (Homo sapiens, UniProt P08254); experiment: Inhibition of MMP3 catalytic domain using Mca-Pro-Leu-Gly-Leu-Dpa-Ala-Arg-NH2 as substrate preincubated for 1 hr prior substrate addition measured after 3 hrs by spectrofluorimetry
Chain of Stromelysin-1 (P08254 whole entry, the tested form may be a part): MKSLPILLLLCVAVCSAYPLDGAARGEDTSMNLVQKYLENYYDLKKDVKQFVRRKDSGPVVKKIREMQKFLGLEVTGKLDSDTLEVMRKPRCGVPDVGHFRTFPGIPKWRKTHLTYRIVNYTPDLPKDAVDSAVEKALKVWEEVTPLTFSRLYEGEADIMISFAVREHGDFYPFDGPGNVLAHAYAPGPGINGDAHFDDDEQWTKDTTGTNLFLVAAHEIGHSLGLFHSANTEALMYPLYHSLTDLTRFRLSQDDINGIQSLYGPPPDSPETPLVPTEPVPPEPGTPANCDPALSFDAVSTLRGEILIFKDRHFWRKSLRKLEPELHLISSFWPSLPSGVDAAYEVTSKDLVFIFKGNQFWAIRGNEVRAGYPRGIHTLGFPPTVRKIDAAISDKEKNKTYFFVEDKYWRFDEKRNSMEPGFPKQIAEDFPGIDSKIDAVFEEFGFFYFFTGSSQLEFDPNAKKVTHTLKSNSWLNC

Neutrophil collagenase = Neutrophil collagenase (Homo sapiens, UniProt P22894); experiment: Inhibition of MMP8 catalytic domain using Mca-Pro-Leu-Gly-Leu-Dpa-Ala-Arg-NH2 as substrate preincubated for 1 hr prior substrate addition measured after 3 hrs by spectrofluorimetry
Chain of Neutrophil collagenase (P22894 whole entry, the tested form may be a part): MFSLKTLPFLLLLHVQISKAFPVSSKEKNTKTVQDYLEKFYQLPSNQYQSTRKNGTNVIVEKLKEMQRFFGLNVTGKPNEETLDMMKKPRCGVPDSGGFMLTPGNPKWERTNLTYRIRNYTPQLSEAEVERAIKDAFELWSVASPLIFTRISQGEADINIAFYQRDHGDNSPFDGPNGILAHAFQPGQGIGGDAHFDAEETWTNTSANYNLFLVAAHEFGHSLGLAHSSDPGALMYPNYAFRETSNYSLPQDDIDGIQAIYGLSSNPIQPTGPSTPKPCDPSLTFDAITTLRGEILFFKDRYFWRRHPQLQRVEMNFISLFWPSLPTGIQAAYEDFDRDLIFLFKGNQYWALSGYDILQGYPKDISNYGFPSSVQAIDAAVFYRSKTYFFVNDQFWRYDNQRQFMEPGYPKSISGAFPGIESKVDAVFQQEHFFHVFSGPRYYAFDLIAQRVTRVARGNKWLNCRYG

[3] = biological target: Macrophage metalloelastase (Homo sapiens, UniProt P39900); experiment: Inhibition of MMP12 catalytic domain using Mca-Pro-Leu-Gly-Leu-Dpa-Ala-Arg-NH2 as substrate preincubated for 1 hr prior substrate addition measured after 3 hrs by spectrofluorimetry
Chain of Macrophage metalloelastase (P39900 whole entry, the tested form may be a part): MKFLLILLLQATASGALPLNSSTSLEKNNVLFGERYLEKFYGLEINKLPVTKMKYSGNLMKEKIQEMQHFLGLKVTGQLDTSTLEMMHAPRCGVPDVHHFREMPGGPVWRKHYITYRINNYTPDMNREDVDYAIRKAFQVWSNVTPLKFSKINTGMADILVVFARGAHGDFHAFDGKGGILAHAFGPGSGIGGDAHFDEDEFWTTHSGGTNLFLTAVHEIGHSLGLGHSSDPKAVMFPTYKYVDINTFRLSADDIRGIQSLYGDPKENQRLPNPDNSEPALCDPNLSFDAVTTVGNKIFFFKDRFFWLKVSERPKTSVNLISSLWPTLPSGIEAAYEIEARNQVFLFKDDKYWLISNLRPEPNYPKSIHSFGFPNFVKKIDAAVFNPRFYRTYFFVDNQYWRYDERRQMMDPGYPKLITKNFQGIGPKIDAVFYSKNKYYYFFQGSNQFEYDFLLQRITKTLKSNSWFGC

[4] = biological target: Matrix metalloproteinase-14 (Homo sapiens, UniProt P50281); experiment: Inhibition of MMP14 catalytic domain using Mca-Pro-Leu-Gly-Leu-Dpa-Ala-Arg-NH2 as substrate preincubated for 1 hr prior substrate addition measured after 3 hrs by spectrofluorimetry

Chain of 72 kDa type IV collagenase (P08253 whole entry, the tested form may be a part): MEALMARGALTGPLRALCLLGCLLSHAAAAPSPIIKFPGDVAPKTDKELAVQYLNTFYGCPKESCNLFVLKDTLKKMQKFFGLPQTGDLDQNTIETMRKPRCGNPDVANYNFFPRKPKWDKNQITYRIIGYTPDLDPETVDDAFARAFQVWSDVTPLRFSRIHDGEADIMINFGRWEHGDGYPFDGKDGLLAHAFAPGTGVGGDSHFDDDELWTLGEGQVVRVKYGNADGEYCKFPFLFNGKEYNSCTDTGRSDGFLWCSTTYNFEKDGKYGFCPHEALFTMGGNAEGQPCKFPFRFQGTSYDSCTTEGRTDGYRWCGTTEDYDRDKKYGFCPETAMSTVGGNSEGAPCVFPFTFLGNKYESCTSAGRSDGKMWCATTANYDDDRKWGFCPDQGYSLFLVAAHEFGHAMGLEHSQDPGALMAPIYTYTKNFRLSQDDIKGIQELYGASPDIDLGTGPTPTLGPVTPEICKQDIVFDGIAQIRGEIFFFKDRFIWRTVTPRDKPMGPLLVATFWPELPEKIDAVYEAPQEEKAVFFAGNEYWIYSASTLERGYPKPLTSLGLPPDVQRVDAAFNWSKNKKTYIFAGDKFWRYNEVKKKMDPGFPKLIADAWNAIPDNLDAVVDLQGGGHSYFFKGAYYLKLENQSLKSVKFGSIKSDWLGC

IC50 [1] | IC50 [2] | Compound | other results
< 0.0001 µM |  | CCCCCc1ccc(C(=O)Nc2ccc(S(=O)(=O)N(CCN3CCOCC3)[C@@H](C(=O)NO)C(C)C)cc2)cc1 | 
3 µM | 30000 nM | O=C(NO)[C@H]1CCC(=O)N1Cc1ccc(-c2ccccc2)cc1 | 
290 µM |  | O=C(O)[C@H]1CCC(=O)N1Cc1ccc(-c2ccccc2)cc1 | 
> 500 µM |  | NC(=O)[C@H]1CCC(=O)N1Cc1ccc(-c2ccccc2)cc1 | 
> 500 µM | > 500000 nM | O=C(NO)[C@H]1CCC(=O)N1Cc1ccccc1Cl | 
> 500 µM |  | O=C(O)[C@H]1CCC(=O)N1Cc1ccccc1Cl | 
> 500 µM |  | NC(=O)[C@H]1CCC(=O)N1Cc1ccccc1Cl | 
400 µM | 430000 nM | O=C(NO)[C@H]1CCC(=O)N1Cc1ccc(Cl)cc1 | 
> 500 µM |  | O=C(O)[C@H]1CCC(=O)N1Cc1ccc(Cl)cc1 | 
> 500 µM |  | NC(=O)[C@H]1CCC(=O)N1Cc1ccc(Cl)cc1 | 
9 µM | 144000 nM | O=C(NO)[C@@H]1CCC(=O)N1Cc1ccc(-c2ccccc2)cc1 | 
340 µM |  | O=C(O)[C@@H]1CCC(=O)N1Cc1ccc(-c2ccccc2)cc1 | 
> 500 µM |  | NC(=O)[C@@H]1CCC(=O)N1Cc1ccc(-c2ccccc2)cc1 | 
> 500 µM |  | O=C(NO)[C@@H]1CCC(=O)N1Cc1ccccc1Cl | 
> 500 µM |  | NC(=O)[C@@H]1CCC(=O)N1Cc1ccccc1Cl | 
> 500 µM |  | O=C(NO)[C@@H]1CCC(=O)N1Cc1ccc(Cl)cc1 | 
383 µM |  | O=C(O)[C@@H]1CCC(=O)N1Cc1ccc(Cl)cc1 | 

IC50 [1] | IC50 [2] | Compound | other results
> 500 µM |  | NC(=O)[C@@H]1CCC(=O)N1Cc1ccc(Cl)cc1 | 
> 500 µM |  | O=C(NO)[C@@H]1CCCN1Cc1ccc(-c2ccccc2)cc1 | 
330 µM |  | O=C(NO)[C@@H]1CSCN1Cc1ccc(-c2ccccc2)cc1 | 
> 500 µM |  | O=C(NO)[C@@H]1C[C@@H](O)CN1Cc1ccc(-c2ccccc2)cc1 | 
6.8 µM | 47000 nM | O=C(NO)[C@@H]1CSC(=O)N1Cc1ccc(-c2ccccc2)cc1 | 
1.7 µM | 1900 nM | O=C(NO)[C@@H]1CCC(=O)N1S(=O)(=O)c1ccc(-c2ccccc2)cc1 | 
4 µM | 76000 nM | O=C(NO)[C@@H]1CCCN1S(=O)(=O)c1ccc(-c2ccccc2)cc1 | 
0.2 µM | 230 nM | O=C(NO)[C@@H]1CSCN1S(=O)(=O)c1ccc(-c2ccccc2)cc1 | 
31 µM | > 50000 nM | O=C(NO)[C@@H]1CSCN1S(=O)(=O)c1ccc2ccccc2c1 | 
0.71 µM | 560 nM | O=C(NO)[C@@H]1CSCN1S(=O)(=O)c1cccc2cccnc12 | 
0.009 µM | 2 nM | COc1ccc(Oc2ccc(S(=O)(=O)N3CSC[C@H]3C(=O)NO)cc2)cc1 | 
0.013 µM | 16 nM | O=C(NO)[C@@H]1CSCN1S(=O)(=O)c1ccc(Oc2ccc(Cl)cc2)cc1 | IC50 (Interstitial collagenase): 1000 nM; IC50 (Stromelysin-1): 160 nM
0.01 µM | 5 nM | O=C(NO)[C@@H]1CSCN1S(=O)(=O)c1ccc(Oc2ccc(F)cc2)cc1 | IC50 (Interstitial collagenase): > 50000 nM; IC50 (Stromelysin-1): 700 nM
0.009 µM | 600 nM | O=C(NO)[C@@H]1C[S+]([O-])CN1S(=O)(=O)c1ccc(-c2ccccc2)cc1 (some centres not stated) | IC50 (Neutrophil collagenase): 400 nM; IC50 (Interstitial collagenase): 4000 nM; IC50 [3]: 2500 nM; IC50 (Stromelysin-1): 2000 nM; IC50 [4]: 160 nM
0.053 µM | 480 nM | O=C(NO)[C@@H]1CS(=O)(=O)CN1S(=O)(=O)c1ccc(-c2ccccc2)cc1 | IC50 (Neutrophil collagenase): 100 nM; IC50 (Interstitial collagenase): 2500 nM; IC50 [3]: 500 nM; IC50 (Stromelysin-1): 4000 nM; IC50 [4]: 3800 nM
0.0008 µM | 0.5 nM | O=C(NO)[C@@H]1CS(=O)(=O)CN1S(=O)(=O)c1ccc(Oc2ccc(Cl)cc2)cc1 | IC50 (Neutrophil collagenase): 4 nM; IC50 [3]: 19 nM; IC50 [4]: 5 nM
315 µM |  | O=C(O)[C@@H]1CCC(=O)N1Cc1ccccc1Cl | 
